PMC9030254, “Target Hopping from Protein Kinases to PXR: Identification of Small-Molecule Protein Kinase Inhibitors as Selective Modulators of Pregnane X Receptor from TüKIC Library” (Cells, 2022)

What was measured:
Experiment in all cases: Kinase profiling
Type in all cases: biochemical
RON = target: T1, RON (Homo sapiens, UniProt Q04912)
T1 construct: purchased ProQinase (Freiburg, Germany)
Protocol: (§1) The analysis was performed by ProQinase (Freiburg, Germany).

HRI = target: T2, HRI (Homo sapiens, UniProt Q9BQI3)
T2 construct: purchased ProQinase (Freiburg, Germany)
Protocol: as §1

MASTL = target: T3, MASTL (Homo sapiens, UniProt Q96GX5)
T3 construct: purchased ProQinase (Freiburg, Germany)
T3 sequence (Q96GX5 1-879): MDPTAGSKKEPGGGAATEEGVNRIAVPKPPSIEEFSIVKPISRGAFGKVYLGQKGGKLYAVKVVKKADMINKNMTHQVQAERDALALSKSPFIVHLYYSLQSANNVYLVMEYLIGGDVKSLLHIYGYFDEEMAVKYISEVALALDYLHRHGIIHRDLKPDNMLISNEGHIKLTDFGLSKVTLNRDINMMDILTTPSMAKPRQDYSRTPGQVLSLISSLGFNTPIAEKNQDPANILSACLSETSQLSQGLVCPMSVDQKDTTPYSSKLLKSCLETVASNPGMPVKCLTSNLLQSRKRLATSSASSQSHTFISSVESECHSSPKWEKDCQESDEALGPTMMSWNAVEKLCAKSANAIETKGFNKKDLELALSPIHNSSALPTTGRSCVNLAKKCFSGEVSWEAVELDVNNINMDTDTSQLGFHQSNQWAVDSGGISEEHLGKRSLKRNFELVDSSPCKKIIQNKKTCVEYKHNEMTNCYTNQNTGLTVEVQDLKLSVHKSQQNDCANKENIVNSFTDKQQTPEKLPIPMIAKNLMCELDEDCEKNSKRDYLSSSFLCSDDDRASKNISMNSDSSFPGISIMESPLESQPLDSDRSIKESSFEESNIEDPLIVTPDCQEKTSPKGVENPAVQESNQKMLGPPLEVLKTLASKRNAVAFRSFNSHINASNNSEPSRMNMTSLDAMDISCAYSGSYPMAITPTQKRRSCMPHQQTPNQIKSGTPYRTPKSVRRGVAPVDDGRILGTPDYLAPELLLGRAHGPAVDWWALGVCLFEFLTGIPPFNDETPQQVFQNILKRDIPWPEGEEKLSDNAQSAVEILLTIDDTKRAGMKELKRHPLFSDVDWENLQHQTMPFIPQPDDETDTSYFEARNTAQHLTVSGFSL
Protocol: as §1

MAPKAPK3 = target: T4, MAPKAPK3 (Homo sapiens, UniProt Q16644)
T4 construct: purchased ProQinase (Freiburg, Germany)
Protocol: as §1

CDK4/CycD2 = target: T5, CDK4/CycD2 (Homo sapiens, UniProt P11802)
T5 construct: purchased ProQinase (Freiburg, Germany)
Protocol: as §1

SNK = target: T6, SNK (Homo sapiens, UniProt Q9NYY3)
T6 construct: purchased ProQinase (Freiburg, Germany)
Protocol: as §1

NEK1 = target: T7, NEK1 (Homo sapiens, UniProt Q96PY6)
T7 construct: purchased ProQinase (Freiburg, Germany)
T7 sequence (Q96PY6 1-1258): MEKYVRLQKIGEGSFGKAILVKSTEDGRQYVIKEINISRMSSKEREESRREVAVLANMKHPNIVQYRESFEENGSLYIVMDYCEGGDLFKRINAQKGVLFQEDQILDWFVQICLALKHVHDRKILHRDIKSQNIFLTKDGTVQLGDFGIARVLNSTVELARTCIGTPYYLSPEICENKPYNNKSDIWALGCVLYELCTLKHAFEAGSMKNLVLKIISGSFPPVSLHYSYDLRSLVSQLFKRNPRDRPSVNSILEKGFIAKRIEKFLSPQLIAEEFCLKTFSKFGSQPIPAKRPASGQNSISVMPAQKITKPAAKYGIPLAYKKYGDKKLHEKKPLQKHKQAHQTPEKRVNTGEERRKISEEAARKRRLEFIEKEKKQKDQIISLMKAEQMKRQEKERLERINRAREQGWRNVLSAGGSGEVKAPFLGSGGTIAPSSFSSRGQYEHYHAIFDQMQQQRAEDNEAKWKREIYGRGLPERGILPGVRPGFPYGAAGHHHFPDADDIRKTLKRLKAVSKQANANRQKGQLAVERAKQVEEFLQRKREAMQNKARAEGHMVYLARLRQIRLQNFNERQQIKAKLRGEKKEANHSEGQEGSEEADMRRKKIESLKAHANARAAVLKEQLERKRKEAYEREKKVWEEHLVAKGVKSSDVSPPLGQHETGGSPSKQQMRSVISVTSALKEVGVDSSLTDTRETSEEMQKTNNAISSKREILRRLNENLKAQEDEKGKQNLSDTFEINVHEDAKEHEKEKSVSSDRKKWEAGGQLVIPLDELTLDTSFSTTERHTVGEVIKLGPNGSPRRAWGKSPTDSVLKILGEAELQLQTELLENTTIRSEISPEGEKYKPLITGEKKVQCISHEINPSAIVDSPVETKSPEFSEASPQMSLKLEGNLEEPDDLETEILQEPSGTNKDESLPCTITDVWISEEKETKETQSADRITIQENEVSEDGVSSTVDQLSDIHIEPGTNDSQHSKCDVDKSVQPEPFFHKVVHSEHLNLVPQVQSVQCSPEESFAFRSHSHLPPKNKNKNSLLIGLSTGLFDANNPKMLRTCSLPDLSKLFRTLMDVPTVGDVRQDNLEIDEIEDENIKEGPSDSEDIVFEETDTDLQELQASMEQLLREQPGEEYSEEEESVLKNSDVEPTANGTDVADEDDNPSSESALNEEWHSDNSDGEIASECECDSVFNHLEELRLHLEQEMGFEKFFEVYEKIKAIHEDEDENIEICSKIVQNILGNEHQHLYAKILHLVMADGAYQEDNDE
Protocol: as §1

RPS6KA3 = target: T8, RPS6KA3 (Homo sapiens, UniProt P51812)
T8 construct: purchased ProQinase (Freiburg, Germany)
T8 sequence (P51812 whole entry): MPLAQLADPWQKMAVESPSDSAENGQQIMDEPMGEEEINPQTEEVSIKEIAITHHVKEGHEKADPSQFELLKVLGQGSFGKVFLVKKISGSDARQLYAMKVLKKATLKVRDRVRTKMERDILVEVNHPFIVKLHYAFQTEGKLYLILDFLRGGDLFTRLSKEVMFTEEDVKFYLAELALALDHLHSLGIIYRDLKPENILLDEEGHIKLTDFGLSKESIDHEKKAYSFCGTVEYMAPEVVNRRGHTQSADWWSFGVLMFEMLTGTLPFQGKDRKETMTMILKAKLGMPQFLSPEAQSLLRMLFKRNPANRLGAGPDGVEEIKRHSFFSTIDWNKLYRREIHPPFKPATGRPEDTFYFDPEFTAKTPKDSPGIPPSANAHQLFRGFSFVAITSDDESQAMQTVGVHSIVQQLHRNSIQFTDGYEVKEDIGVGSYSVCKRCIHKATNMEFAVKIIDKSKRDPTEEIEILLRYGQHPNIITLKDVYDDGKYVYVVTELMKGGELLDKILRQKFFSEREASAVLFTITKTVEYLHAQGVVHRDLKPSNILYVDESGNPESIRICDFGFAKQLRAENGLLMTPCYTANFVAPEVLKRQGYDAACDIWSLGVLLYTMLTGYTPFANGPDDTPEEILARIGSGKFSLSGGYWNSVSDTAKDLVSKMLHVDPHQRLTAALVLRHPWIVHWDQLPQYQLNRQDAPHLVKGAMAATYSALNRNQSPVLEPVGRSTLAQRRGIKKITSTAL
Protocol: as §1

CDC42BPA = target: T9, CDC42BPA (Homo sapiens, UniProt Q5VT25)
T9 construct: purchased ProQinase (Freiburg, Germany)
T9 sequence (Q5VT25 whole entry): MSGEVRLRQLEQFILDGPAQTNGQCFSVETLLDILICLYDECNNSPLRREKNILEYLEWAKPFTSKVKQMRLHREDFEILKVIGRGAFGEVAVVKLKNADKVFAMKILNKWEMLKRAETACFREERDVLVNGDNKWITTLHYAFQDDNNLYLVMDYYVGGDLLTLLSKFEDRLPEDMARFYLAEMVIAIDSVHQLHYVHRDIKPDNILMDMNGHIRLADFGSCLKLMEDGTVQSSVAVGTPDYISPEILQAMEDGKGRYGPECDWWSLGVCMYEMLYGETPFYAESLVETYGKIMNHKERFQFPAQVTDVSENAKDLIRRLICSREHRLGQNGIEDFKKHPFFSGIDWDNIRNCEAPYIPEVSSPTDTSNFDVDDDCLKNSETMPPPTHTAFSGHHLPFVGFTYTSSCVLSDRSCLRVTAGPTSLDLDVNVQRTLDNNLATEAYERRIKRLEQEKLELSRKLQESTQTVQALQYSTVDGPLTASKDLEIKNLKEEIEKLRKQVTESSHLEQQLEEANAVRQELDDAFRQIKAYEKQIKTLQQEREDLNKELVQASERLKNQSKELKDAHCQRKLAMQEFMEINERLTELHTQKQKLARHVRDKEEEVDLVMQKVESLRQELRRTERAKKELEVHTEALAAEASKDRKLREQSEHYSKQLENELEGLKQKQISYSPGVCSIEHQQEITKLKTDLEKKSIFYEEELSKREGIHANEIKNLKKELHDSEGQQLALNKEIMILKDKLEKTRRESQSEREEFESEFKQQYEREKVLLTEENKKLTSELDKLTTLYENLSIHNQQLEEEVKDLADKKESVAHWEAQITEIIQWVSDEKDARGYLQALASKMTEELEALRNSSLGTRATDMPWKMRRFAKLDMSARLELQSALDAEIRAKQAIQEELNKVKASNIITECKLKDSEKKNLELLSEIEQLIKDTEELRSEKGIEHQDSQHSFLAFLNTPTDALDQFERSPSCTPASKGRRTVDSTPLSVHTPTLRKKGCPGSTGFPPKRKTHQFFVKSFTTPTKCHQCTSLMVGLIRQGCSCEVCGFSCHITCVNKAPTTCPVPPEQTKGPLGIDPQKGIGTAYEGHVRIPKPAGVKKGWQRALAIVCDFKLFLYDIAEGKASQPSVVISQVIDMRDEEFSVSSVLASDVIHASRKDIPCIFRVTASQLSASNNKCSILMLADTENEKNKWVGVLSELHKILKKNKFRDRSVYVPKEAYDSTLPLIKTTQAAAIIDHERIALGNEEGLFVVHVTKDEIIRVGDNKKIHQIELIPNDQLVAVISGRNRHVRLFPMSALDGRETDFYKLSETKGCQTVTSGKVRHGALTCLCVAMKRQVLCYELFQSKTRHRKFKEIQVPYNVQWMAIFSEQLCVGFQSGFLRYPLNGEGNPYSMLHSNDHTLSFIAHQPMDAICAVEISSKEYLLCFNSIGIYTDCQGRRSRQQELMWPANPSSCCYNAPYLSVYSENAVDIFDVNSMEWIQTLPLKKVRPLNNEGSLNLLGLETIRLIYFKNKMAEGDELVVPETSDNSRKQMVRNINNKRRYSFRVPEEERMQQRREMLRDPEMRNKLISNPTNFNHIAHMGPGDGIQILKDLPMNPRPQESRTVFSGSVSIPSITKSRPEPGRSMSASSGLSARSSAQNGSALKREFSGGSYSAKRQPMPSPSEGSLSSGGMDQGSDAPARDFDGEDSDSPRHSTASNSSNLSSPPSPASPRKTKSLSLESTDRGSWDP
Protocol: as §1

CDK17/p35NCK = target: T10, CDK17/p35NCK (Homo sapiens, UniProt Q00537)
T10 construct: purchased ProQinase (Freiburg, Germany)
Protocol: as §1

RET = target: T11, RET (Homo sapiens, UniProt P07949)
T11 construct: purchased ProQinase (Freiburg, Germany)
T11 sequence (P07949 29-1114): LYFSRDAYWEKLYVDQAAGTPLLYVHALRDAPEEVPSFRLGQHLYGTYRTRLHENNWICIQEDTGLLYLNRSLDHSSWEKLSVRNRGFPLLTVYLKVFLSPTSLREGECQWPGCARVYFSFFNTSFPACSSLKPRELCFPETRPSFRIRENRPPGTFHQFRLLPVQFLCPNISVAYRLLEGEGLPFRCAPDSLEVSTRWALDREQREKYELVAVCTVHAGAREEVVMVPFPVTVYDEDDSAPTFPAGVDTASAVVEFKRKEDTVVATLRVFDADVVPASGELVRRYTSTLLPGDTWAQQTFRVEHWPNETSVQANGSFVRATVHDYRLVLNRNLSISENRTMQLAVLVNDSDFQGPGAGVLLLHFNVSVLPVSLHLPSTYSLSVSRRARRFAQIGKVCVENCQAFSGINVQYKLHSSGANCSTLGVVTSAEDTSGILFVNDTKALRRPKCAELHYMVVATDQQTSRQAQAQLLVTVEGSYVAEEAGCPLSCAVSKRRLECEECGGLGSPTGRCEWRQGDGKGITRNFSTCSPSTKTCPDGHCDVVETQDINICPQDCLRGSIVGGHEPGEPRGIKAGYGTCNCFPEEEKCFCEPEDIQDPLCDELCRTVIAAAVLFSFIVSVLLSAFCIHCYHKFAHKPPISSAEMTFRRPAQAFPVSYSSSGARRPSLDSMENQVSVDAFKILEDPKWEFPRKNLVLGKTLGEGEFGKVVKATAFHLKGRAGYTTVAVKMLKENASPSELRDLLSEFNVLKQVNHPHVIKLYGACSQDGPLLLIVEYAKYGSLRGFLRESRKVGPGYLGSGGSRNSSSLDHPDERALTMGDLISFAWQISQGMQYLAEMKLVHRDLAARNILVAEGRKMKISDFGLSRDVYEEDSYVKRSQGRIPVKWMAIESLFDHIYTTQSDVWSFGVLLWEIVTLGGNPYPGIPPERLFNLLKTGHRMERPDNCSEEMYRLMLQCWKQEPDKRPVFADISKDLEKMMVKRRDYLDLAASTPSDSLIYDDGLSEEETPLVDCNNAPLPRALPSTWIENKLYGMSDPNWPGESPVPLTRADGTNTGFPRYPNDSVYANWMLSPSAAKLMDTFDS
Protocol: as §1

MAP3K1 = target: T12, MAP3K1 (Homo sapiens, UniProt Q13233)
T12 construct: purchased ProQinase (Freiburg, Germany)
Protocol: as §1

T1 sequence (Q04912 25-1400): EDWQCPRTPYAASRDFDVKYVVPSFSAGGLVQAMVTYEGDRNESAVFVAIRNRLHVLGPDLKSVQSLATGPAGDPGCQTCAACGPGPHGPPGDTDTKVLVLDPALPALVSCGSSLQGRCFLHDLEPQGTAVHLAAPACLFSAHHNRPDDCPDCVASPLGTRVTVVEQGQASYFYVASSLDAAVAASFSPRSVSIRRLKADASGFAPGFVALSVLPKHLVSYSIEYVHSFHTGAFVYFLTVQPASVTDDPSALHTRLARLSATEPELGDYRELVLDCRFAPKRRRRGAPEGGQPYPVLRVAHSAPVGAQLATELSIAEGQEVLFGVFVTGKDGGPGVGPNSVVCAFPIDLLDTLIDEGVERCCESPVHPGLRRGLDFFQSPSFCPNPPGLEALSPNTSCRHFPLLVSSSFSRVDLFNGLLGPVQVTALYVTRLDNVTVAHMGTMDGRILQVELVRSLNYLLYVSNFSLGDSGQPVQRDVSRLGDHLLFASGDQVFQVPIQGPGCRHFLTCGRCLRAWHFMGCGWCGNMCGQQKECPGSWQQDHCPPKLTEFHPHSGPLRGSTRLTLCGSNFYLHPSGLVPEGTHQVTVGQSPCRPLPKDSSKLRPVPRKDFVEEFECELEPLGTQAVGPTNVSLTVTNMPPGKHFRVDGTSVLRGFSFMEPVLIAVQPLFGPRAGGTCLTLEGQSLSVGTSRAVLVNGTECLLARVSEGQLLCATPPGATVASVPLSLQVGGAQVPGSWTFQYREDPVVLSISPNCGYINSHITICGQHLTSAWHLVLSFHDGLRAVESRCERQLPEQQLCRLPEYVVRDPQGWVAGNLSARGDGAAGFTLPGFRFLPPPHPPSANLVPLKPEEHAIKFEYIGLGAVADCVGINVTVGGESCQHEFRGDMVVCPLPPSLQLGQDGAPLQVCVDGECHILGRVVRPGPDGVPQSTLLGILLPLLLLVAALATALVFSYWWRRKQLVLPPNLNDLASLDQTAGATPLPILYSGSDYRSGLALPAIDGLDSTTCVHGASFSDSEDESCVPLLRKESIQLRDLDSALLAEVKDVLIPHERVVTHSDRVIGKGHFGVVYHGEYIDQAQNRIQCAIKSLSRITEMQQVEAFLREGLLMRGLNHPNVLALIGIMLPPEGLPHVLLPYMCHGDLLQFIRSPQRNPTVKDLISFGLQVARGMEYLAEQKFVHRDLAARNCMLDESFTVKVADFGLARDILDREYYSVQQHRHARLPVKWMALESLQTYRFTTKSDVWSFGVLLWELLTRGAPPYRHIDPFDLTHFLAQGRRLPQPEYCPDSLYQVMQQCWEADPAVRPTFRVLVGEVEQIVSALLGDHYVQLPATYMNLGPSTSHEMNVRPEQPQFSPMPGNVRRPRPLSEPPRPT

| SMILES | Residual activity (RON; 1.0E-05 M) | Residual activity (RON; 1.0E-06 M) | Residual activity (HRI; 1.0E-05 M) | Residual activity (HRI; 1.0E-06 M) | Residual activity (MASTL; 1.0E-05 M) | Residual activity (MASTL; 1.0E-06 M) | Residual activity (MAPKAPK3; 1.0E-05 M) | Residual activity (MAPKAPK3; 1.0E-06 M) | Residual activity (CDK4/CycD2; 1.0E-05 M) | Residual activity (CDK4/CycD2; 1.0E-06 M) | Residual activity (SNK; 1.0E-05 M) | Residual activity (SNK; 1.0E-06 M) | Residual activity (NEK1; 1.0E-05 M) | Residual activity (NEK1; 1.0E-06 M) | Residual activity (RPS6KA3; 1.0E-05 M) | Residual activity (RPS6KA3; 1.0E-06 M) | Residual activity (CDC42BPA; 1.0E-05 M) | Residual activity (CDC42BPA; 1.0E-06 M) | Residual activity (CDK17/p35NCK; 1.0E-05 M) | Residual activity (CDK17/p35NCK; 1.0E-06 M) | other results |
| --- | --- | --- | --- | --- | --- | --- | --- | --- | --- | --- | --- | --- | --- | --- | --- | --- | --- | --- | --- | --- | --- |
| O=C(Cc1ccccc1)Nc1ccc(F)c(Nc2ccc3c(c2)CCCCC3=O)c1 [Compound 100] | 77 % of control | 104 % of control | 123 % of control | 120 % of control | 92 % of control | 99 % of control | 50 % of control | 109 % of control | 86 % of control | 94 % of control | 90 % of control | 102 % of control | 96 % of control | 98 % of control | 80 % of control | 97 % of control | 110 % of control | 114 % of control | 84 % of control | 102 % of control | inhibition at 10 µM (MAPKAPK3; 10 µM): ≥ 50%; Residual activity (RET; 1.0E-05 M): 70 % of control; Residual activity (RET; 1.0E-06 M): 91 % of control; Residual activity (MAP3K1; 1.0E-05 M): 83 % of control; Residual activity (MAP3K1; 1.0E-06 M): 96 % of control |
| O=C(Nc1ccc(F)c(Nc2ccc3c(c2)CCCCC3=O)c1)c1cccc(F)c1 [Compound 109] | 83 % of control | 89 % of control | 129 % of control | 98 % of control | 99 % of control | 94 % of control | 65 % of control | 98 % of control | 91 % of control | 94 % of control | 92 % of control | 94 % of control | 93 % of control | 96 % of control | 84 % of control | 90 % of control | 116 % of control | 103 % of control | 92 % of control | 109 % of control | Residual activity (RET; 1.0E-05 M): 89 % of control; Residual activity (RET; 1.0E-06 M): 95 % of control; Residual activity (MAP3K1; 1.0E-05 M): 93 % of control; Residual activity (MAP3K1; 1.0E-06 M): 96 % of control |
